Data on 19 compounds can be found in patent US20260217683A1, “PYRIDAZINONE HETEROCYCLIC COMPOUND MYOSIN II INHIBITOR AND USE THEREOF” (Xizang Haisco Pharmaceutical Co., Ltd., priority 2023, published 2026).

Usually inhibition stands for the change of the read-out against control, counted positive when it falls. Usually IC50 stands for the concentration at which inhibition is half-maximal.

Where two headings read alike, the source gives them in different places.

The nature of series [1]: Pharmacokinetic experiment in mouse muscle tissue (tibialis anterior / plasma). Format: in vivo, C57 mice. To be noted: male, C57, tibialis anterior muscle / plasma, oral, intragastric 10 mg/kg, read-out: Ratio = Tibialis anterior Conc./Plasma Conc. The protocol: 1. Experimental animals: Male C57 mice, 22-25 g, 6 mice/compound. Purchased from Chengdu Ddossy Experimental Animals Co., Ltd.
2. Experimental design: On the day of the experiment, C57 mice were randomly grouped according to their body weight. The animals were fasted with water available for 12 to 14 h one day before the administration and were fed 4 h after the administration. Administration was performed as per Table 10.1.

The next series concerns the target T1, cardiac myosin SII (Bos taurus, UniProt Q9BE39).
T1 construct: purchased Cytoskeleton #MYO3-A
As to the kind of experiment: Inhibition of hydrolysis of ATP by cardiac myosin SII. Format: biochemical. Particulars: 100 μM compound. The protocol:
The purpose of this test was to evaluate the ability of compounds to inhibit the hydrolysis of ATP by cardiac myosin SII. The determination method was as follows: • 1. Solution formulation: • Preformed F-actin filaments (#AKF99-B, Cytoskeleton) were diluted to 1 mg/mL with Reaction buffer (15 mM Tris-HCL. PH7.5+10 mM KCl+0.1 mM EGTA+2 mM MgCl2); • Cardiac Muscle myosin (#MYO3-A, Cytoskeleton) was diluted to 1 mg/mL with Resuspension buffer (15 mM Tris-HCL, PH7.5+0.2M KCl+1 mM MgCl2); • ATP (#BSA04-001, Cytoskeleton) was diluted to 3 mM working solution with 15 mM Tris-HCL (PH=7.5); • 2. Formulation of working solution of compounds: the final compound concentration was 100 μM • 3. Experimental steps: • adding 10 μL of compound working solution+12 μL of Preformed F-actin filaments+3 μL of Cardiac Muscle myosin to the compound wells; • adding 10 μL of reaction buffer containing DMSO+12 μL Preformed F-actin filaments +3 μL Cardiac Muscle myosin to positive control wells; • adding 10 μL of reaction buffer containing DMSO+12 μL Preformed F-actin filaments +3 μL Resuspension buffer to negative control wells; • adding 5 μL of 3 mM ATP working solution to all test wells to start the reaction, gently mixing and incubating at 37° C. for 2 h; • after the reaction was completed, taking 6 μL of reaction liquid, adding 24 μL of reaction buffer for 5-fold dilution, then detecting the content of the product Pi with a phosphate kit (#BK054, Cytoskeleton); • adding a sample to Pi standard wells according to the instructions; • adding 70 μL of CytoPhos Reagent (#BK054, Cytoskeleton) to each well and incubating at room temperature for 10 min before detection. • 4. Detection: • the OD value of each well was detected at 650 nm. The standard curve was fitted according to Pi standard concentration and OD value, and the Pi concentration of each test well was obtained. Inhibition (%)=(positive control well−test well)/positive control well*100%.

For a further series, the target named is T2, smooth muscle myosin S1 (Gallus gallus, UniProt P10587).
T2 construct: purchased Cytoskeleton #CS-MYS05
T2 sequence (P10587 84-789 limits assumed): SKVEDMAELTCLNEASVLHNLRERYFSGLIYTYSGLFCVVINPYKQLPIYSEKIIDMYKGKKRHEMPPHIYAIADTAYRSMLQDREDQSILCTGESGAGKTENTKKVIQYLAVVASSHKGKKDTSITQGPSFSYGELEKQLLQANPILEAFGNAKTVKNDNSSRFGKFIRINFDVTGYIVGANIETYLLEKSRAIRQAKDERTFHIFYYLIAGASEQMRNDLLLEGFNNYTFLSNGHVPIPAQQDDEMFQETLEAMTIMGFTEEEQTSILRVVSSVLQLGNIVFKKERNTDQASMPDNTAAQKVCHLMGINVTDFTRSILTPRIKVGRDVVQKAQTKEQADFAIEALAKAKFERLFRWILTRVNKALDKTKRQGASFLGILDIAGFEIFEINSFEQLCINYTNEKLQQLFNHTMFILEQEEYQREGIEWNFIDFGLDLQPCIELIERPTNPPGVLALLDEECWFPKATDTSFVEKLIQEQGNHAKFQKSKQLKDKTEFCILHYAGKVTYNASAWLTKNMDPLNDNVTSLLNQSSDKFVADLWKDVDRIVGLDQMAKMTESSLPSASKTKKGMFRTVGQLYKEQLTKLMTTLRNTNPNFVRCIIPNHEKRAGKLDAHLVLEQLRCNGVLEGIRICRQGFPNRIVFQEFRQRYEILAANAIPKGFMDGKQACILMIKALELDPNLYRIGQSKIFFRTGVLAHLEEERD
T2 sequence (P02607 whole entry partner): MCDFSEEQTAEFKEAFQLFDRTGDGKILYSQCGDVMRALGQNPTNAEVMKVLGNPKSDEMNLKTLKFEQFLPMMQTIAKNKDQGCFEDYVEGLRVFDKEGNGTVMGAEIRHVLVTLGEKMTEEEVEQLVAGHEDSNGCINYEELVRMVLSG
As to the kind of experiment: Inhibition of hydrolysis of ATP by smooth muscle myosin S1 fragments. Format: biochemical. To be noted: for inhibition at 100 µM / Smooth muscle myosin S1 (Inhibition @ 100 μM): 100 μM compound. On the procedure:
The purpose of this test was to evaluate the ability of compounds to inhibit the hydrolysis of ATP by smooth muscle myosin Si fragments. The determination method was as follows: • 1. Solution formulation • F-actin polymer: Cardiac Actin powder (#CS-AD99, Cytoskeleton) was dissolved in a buffer (5 mM Pipes-KOH solution, PH=7.0, containing 100 μM ATP and 500 μM DTT) to form a 2 mg/mL solution and the solution was left at room temperature for 30 min; then 2 mM MgCl2 and 2 mM EGTA were added and the obtained system was left at room temperature for 40 min; • Smooth muscle SI fragment (#CS-MYS05, Cytoskeleton) was diluted with a pre-cooled PM12 buffer containing 1 mM DTT (12 mM Pipes-KOH solution, PH=7.0, containing 2 mM MgCl2) to form a 0.7 mg/mL solution; • ATP (#BSA04-001, Cytoskeleton) was diluted to 5 mM working solution with 15 mM Tris-HCL (PH=7.5); • 2. […] Experimental steps: • adding 10 μL of compound working solution+6 μL of F-actin polymer+4 μL of Smooth muscle Si fragment solution to the compound wells; • adding 10 μL of PM12 buffer containing DMSO+6 μL of F-actin polymer+4 μL of Smooth muscle S1 fragment solution to positive control wells; • adding 10 μL of PM12 buffer containing DMSO+6 μL of F-actin polymer+4 μL of PM12 buffer to negative control wells; • adding […] of 5 mM ATP working solution to all test wells to start the reaction, gently mixing and incubating at 37° C. for 20 min; • after the reaction was completed, taking 6 μLL of reaction liquid, adding 24 μL of PM12 buffer for 5-fold dilution, then detecting the content of the product Pi with a phosphate kit (#BK054, Cytoskeleton); • adding a standard according to the instructions, adding 70 μL of CytoPhos Reagent (#BK054, Cytoskeleton) to all wells and incubating at room temperature for 10 min before detection. • 4. Detection: • the OD value of each well was detected at 650 nm. The standard curve was fitted according to Pi standard concentration and OD value, and the Pi concentration of each test well was obtained. Inhibition (%)=(positive control well−test well)/positive control well*100%.

Series [2] deals with rabbit skeletal muscle myosin. As to the kind of experiment: Inhibition of hydrolysis of ATP by rabbit skeletal muscle myosin. Format: biochemical. The protocol:
The purpose of this test was to evaluate the ability of compounds to inhibit the hydrolysis of ATP by rabbit skeletal muscle myosin. The determination method was as follows:
• Preformed F-actin filaments (#AKF99-B, Cytoskeleton) were diluted to 1 mg/mL with Reaction buffer (25 mM Tris-HCL, pH 7.5+35 mM KCl+0.1 mM EGTA+1 mM MgCl2); • Rabbit myosin (#MYO2-A, Cytoskeleton) was diluted to 0.1 mg/mL with Resuspension buffer (15 mM Tris-HCL, PH7.5+0.2 M KCl+1 mM MgCl2); • ATP (#BSA04-001, Cytoskeleton) was diluted to 3 mM working solution with 15 mM Tris-HCL (PH=7.5);
• adding 13 μL reaction buffer+12 μL F-actin to actin control wells; • adding 10 μL reaction buffer+12 μL F-actin+3 μL myosin II to positive control wells; • adding 10 μL of compound working solution+12 μL of F-actin+3 μL of myosin II to the compound wells; • adding 5 μL of ATP working solution to all test wells to start the reaction, and simultaneously adding a sample to the Pi standard wells according to the instruction (#BK054, Cytoskeleton); • gently mixing and accurately incubating at 37° C. for 60 min; • adding 70 μL of CytoPhos Reagent (#BK054, Cytoskeleton) to each well and incubating for 10 min to stop the reaction.
• the OD value of each well was detected at 650 nm using the endpoint method. The standard curve was fitted according to Pi concentration and OD value, and the Pi concentration of each test well was obtained. Inhibition (%)=(Pi positive control well-Pi test well)/Pi positive control well*100%. The Inhibition %-[…] curve was fitted with Graphpad Prism 8 software, and IC50 was calculated.

The mark [3] stands for this setting: inhibition of hydrolysis of ATP, class symbols, read-out: Rabbit skeletal muscle myosin (IC50).
The mark [4] stands for this setting: read-out: IC50 for inhibition of hydrolysis of ATP by rabbit skeletal muscle myosin.

T1 sequence (Q9BE39 whole entry): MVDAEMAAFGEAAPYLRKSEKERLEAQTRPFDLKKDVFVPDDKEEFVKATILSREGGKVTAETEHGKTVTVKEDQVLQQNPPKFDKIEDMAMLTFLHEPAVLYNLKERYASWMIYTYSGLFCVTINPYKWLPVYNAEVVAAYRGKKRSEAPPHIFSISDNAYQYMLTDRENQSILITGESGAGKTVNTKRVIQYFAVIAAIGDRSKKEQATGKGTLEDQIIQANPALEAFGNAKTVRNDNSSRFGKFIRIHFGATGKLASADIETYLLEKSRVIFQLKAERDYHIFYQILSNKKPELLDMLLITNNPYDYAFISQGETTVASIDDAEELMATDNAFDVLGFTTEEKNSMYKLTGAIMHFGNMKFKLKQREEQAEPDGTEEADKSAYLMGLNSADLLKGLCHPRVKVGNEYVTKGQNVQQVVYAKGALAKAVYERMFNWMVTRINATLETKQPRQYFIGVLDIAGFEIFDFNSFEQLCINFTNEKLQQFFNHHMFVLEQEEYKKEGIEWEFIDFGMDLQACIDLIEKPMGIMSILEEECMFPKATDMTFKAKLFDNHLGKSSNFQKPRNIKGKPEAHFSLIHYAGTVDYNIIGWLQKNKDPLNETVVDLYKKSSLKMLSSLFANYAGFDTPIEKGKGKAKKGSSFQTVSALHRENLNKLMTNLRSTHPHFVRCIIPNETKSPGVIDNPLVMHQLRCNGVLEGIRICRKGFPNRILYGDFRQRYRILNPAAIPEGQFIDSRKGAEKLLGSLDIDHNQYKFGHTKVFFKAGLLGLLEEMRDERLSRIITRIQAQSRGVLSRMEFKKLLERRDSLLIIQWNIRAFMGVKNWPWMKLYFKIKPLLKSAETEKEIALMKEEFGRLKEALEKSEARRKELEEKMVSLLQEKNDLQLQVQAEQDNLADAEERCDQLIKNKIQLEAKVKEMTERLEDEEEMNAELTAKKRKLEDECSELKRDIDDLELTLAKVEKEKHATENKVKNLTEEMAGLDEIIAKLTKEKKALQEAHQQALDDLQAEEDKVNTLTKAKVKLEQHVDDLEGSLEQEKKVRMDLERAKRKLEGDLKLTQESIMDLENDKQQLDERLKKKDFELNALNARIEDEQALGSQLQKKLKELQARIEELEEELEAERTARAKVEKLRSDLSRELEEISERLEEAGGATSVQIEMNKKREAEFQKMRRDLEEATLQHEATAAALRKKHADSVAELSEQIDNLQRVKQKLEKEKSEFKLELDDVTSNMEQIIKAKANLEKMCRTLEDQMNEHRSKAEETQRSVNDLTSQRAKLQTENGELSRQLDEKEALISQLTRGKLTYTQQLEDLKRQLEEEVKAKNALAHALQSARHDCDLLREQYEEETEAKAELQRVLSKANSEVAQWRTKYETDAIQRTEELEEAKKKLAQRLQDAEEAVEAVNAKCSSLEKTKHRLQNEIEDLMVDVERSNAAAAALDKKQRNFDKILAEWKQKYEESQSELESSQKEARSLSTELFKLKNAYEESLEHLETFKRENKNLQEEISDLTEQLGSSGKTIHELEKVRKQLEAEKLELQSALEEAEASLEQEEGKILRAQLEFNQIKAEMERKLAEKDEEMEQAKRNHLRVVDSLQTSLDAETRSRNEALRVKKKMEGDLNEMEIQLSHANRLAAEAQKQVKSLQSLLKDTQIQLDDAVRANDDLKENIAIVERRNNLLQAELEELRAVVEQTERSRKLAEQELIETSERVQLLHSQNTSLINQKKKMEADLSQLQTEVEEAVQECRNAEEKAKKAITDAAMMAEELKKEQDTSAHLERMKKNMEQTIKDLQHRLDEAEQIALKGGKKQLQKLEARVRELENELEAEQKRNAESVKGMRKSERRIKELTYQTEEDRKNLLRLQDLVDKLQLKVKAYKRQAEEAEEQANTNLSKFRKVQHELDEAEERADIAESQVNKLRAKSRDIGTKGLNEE
T1 sequence (P85100 whole entry partner): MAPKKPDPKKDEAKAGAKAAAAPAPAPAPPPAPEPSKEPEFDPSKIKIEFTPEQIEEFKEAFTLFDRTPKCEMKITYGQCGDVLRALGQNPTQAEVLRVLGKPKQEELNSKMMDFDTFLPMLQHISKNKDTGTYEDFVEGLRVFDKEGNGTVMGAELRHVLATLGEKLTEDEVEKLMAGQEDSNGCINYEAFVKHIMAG
T1 sequence (Q3SZE5 whole entry partner): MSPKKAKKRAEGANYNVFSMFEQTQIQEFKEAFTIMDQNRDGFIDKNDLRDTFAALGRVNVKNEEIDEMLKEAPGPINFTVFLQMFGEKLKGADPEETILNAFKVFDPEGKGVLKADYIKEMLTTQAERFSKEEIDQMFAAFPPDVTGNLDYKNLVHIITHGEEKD

On to `CC(F)(F)COc1ncc(-c2ccc(=O)n(Cc3ccc4c(c3)C(=O)CC4)n2)cn1` [Compound 139], for which, in series [1] (6 h), the Kp at 6 h amounted to 63.5. In addition, the Kp at 24 h in series [1] (24 h) was 85.5. In addition, the inhibition at 100 µM against cardiac myosin SII and at smooth muscle myosin S1 was 6% throughout. In addition, the IC50 in series [2] (setting [3]) was less than 2.5 µM; in series [2] (setting [4]) it was 0.6 µM.
Regarding `O=c1ccc(-c2cnc(O[C@@H]3CCOC3)nc2)nn1Cc1ccc2c(c1)CCC2` [Compound 126], the inhibition at 100 µM against cardiac myosin SII and against smooth muscle myosin S1 was 7% in each case. The IC50 in series [2] (setting [3]) is less than 2.5 µM; in series [2] (setting [4]) it was 0.5 µM.
With `O=c1ccc(-c2cnc(OCC(F)(F)F)nc2)nn1Cc1cc(F)c2c(c1)CCC2` [Compound 73], the inhibition at 100 µM was 10.2% against cardiac myosin SII and -3% at smooth muscle myosin S1. In addition, the IC50 is less than 2.5 µM in series [2] (setting [3]) and 0.55 µM in series [2] (setting [4]).
As for `O=c1ccc(-c2cnc(Oc3cncc(C(F)(F)F)c3)nc2)nn1Cc1ccc2c(c1)CCC2` [Compound 134], the inhibition at 100 µM is 1% against cardiac myosin SII and 8% on smooth muscle myosin S1. The half-inhibitory concentration (IC50) in series [2] (setting [3]) was less than 2.5 µM.
Consider `O=C1CCc2ccc(Cn3nc(-c4cnc(Oc5cncc(C(F)(F)F)c5)nc4)ccc3=O)cc21` [Compound 142], for which the inhibition at 100 µM at cardiac myosin SII was -8%; on smooth muscle myosin S1 it was 2%. Also, the IC50 in series [2] (setting [3]) was 2.5 to 20 µM.
For `O=c1ccc(-c2cnc(OCC(F)F)nc2)nn1Cc1ccc2c(c1)CCC2` [Compound 67], the inhibition at 100 µM against cardiac myosin SII was determined as 2%; against smooth muscle myosin S1, 3%. For the same compound, the concentration for half-maximal inhibition (IC50) in series [2] (setting [3]) was less than 2.5 µM.
In the case of `O=c1ccc(-c2cnc(OC3CCOCC3)nc2)nn1Cc1ccc2c(c1)CC2` [Compound 95], the inhibition at 100 µM against cardiac myosin SII is 2%; on smooth muscle myosin S1 it was -2%. The IC50 in series [2] (setting [3]) was in the range of 2.5 to 20 µM.
For the compound `O=c1ccc(-c2cnc(O[C@H]3CCOC3)nc2)nn1Cc1ccc2c(c1)CCC2` [Compound 120], the figures for the inhibition at 100 µM on cardiac myosin SII and at smooth muscle myosin S1 were 14% and -3%, respectively. For the same compound, the values for the half-inhibitory concentration (IC50) in series [2] (setting [3]) and in series [2] (setting [4]) were less than 2.5 µM and 0.7 µM, respectively.
Consider `O=c1ccc(-c2cnc(OCC(F)(F)F)nc2)nn1Cc1ccc2c(c1)C1CC1C2` (stereo not shown) [Compound 159], for which the “Cardiac myosin SII (Inhibition @ 100 μM)” value at cardiac myosin SII is 7%. For the same compound, the “Smooth muscle myosin S1 (Inhibition @ 100 μM)” value at smooth muscle myosin S1 was found to be 5%. Moreover, the IC50 is less than 2.5 µM in series [2] (setting [3]) and 0.4 µM in series [2] (setting [4]).
With `O=C1CCc2cc(F)c(Cn3nc(-c4cnc(OCC(F)(F)F)nc4)ccc3=O)cc21` [Compound 136], the inhibition at 100 µM was -7% against cardiac myosin SII and -4% against smooth muscle myosin S1. The IC50 in series [2] (setting [3]) was less than 2.5 µM.
As to `O=c1ccc(-c2cnc(OC3CC3)nc2)nn1Cc1ccc2c(c1)CCC2` [Compound 84], the inhibition at 100 µM against cardiac myosin SII was -3.8%. The inhibition at 50 µM against smooth muscle myosin S1 turned out to be 20.2%. In addition, the IC50 in series [2] (setting [3]) was less than 2.5 µM.
`O=c1ccc(-c2cnc(Oc3nccs3)nc2)nn1Cc1ccc2c(c1)CCC2` [Compound 130]: the inhibition at 100 µM against cardiac myosin SII came to 3%; against smooth muscle myosin S1 it was 2%. Besides, in series [2] (setting [3]), the IC50 was in the range of 2.5 to 20 µM.
For `O=c1cc2c(nn1Cc1ccc3c(c1)CC3)-c1cnc(Oc3cncc(F)c3)nc1CC2` [Compound 112] the same measures were 2%, -9% and less than 2.5 µM.
For the compound `O=c1ccc(-c2cnc(OCC3CC3(F)F)nc2)nn1Cc1ccc2c(c1)CCC2` (stereo not shown) [Compound 81], the inhibition at 100 µM against cardiac myosin SII is -5.6%. Also, at smooth muscle myosin S1, the inhibition at 50 µM turned out to be 10.9%. Besides, the half-maximal inhibitory concentration (IC50) in series [2] (setting [3]) was less than 2.5 µM.
As for `O=c1ccc(-c2cnc(Oc3ccnc(C(F)(F)F)c3)nc2)nn1Cc1ccc2c(c1)CCC2` [Compound 133], the inhibition at 100 µM on cardiac myosin SII was -4%; against smooth muscle myosin S1, 8%. Besides, in series [2] (setting [3]), the concentration for half-maximal inhibition (IC50) was less than 2.5 µM.
Take `O=c1ccc(-c2cnc(OCC(F)F)nc2)nn1Cc1cc(F)c2c(c1)CCC2` [Compound 74]: the inhibition at 100 µM was 15.8% on cardiac myosin SII and 5.3% against smooth muscle myosin S1. The IC50 is less than 2.5 µM in series [2] (setting [3]) and 0.29 µM in series [2] (setting [4]).
As to `O=c1ccc(-c2cnc(OCC(F)(F)F)nc2)nn1Cc1ccc2c(c1)CCCC2(F)F` [Compound 89], the figures for the inhibition at 100 µM on cardiac myosin SII and against smooth muscle myosin S1 were 13.7% and 17.6%, respectively. For the same compound, the concentration for half-maximal inhibition (IC50) in series [2] (setting [3]) was 2.5 to 20 µM.
Regarding `O=c1ccc(-c2cnc(OCC(F)(F)F)nc2)nn1Cc1ccc2c(c1)C1CC1C2` (stereo not shown) [Compound 140], the “Cardiac myosin SII (Inhibition @ 100 μM)” value on cardiac myosin SII is on record as −6%. Moreover, the “Smooth muscle myosin S1 (Inhibition @ 100 μM)” value on smooth muscle myosin S1 is given as 2%. Moreover, the 50% inhibitory concentration (IC50) was less than 2.5 µM in series [2] (setting [3]) and 0.8 µM in series [2] (setting [4]).
For the compound `O=c1ccc(-c2cnc(OCC3(F)CC3)nc2)nn1Cc1ccc2c(c1)CCC2` [Compound 108], the inhibition at 100 µM against cardiac myosin SII is 4.5%; against smooth muscle myosin S1 it was -0.9%. In addition, the results for the IC50 in series [2] (setting [3]) and in series [2] (setting [4]) were less than 2.5 µM and 0.2 µM, respectively.
